Target: Inositol 1,4,5-trisphosphate-gated calcium channel ITPR3 (Bos taurus, UniProt Q8WN95)
Assay: Binding affinity towards Inositol 1,4,5-trisphosphate receptor was evaluated by the standard competitive binding assay using 1.25 nM [3H]D-I(1,4,5)P3 binding protein, prepared from bovine adrenal cortex
Assay type: tissue-based

Chain of Inositol 1,4,5-trisphosphate-gated calcium channel ITPR3 (Q8WN95 whole entry): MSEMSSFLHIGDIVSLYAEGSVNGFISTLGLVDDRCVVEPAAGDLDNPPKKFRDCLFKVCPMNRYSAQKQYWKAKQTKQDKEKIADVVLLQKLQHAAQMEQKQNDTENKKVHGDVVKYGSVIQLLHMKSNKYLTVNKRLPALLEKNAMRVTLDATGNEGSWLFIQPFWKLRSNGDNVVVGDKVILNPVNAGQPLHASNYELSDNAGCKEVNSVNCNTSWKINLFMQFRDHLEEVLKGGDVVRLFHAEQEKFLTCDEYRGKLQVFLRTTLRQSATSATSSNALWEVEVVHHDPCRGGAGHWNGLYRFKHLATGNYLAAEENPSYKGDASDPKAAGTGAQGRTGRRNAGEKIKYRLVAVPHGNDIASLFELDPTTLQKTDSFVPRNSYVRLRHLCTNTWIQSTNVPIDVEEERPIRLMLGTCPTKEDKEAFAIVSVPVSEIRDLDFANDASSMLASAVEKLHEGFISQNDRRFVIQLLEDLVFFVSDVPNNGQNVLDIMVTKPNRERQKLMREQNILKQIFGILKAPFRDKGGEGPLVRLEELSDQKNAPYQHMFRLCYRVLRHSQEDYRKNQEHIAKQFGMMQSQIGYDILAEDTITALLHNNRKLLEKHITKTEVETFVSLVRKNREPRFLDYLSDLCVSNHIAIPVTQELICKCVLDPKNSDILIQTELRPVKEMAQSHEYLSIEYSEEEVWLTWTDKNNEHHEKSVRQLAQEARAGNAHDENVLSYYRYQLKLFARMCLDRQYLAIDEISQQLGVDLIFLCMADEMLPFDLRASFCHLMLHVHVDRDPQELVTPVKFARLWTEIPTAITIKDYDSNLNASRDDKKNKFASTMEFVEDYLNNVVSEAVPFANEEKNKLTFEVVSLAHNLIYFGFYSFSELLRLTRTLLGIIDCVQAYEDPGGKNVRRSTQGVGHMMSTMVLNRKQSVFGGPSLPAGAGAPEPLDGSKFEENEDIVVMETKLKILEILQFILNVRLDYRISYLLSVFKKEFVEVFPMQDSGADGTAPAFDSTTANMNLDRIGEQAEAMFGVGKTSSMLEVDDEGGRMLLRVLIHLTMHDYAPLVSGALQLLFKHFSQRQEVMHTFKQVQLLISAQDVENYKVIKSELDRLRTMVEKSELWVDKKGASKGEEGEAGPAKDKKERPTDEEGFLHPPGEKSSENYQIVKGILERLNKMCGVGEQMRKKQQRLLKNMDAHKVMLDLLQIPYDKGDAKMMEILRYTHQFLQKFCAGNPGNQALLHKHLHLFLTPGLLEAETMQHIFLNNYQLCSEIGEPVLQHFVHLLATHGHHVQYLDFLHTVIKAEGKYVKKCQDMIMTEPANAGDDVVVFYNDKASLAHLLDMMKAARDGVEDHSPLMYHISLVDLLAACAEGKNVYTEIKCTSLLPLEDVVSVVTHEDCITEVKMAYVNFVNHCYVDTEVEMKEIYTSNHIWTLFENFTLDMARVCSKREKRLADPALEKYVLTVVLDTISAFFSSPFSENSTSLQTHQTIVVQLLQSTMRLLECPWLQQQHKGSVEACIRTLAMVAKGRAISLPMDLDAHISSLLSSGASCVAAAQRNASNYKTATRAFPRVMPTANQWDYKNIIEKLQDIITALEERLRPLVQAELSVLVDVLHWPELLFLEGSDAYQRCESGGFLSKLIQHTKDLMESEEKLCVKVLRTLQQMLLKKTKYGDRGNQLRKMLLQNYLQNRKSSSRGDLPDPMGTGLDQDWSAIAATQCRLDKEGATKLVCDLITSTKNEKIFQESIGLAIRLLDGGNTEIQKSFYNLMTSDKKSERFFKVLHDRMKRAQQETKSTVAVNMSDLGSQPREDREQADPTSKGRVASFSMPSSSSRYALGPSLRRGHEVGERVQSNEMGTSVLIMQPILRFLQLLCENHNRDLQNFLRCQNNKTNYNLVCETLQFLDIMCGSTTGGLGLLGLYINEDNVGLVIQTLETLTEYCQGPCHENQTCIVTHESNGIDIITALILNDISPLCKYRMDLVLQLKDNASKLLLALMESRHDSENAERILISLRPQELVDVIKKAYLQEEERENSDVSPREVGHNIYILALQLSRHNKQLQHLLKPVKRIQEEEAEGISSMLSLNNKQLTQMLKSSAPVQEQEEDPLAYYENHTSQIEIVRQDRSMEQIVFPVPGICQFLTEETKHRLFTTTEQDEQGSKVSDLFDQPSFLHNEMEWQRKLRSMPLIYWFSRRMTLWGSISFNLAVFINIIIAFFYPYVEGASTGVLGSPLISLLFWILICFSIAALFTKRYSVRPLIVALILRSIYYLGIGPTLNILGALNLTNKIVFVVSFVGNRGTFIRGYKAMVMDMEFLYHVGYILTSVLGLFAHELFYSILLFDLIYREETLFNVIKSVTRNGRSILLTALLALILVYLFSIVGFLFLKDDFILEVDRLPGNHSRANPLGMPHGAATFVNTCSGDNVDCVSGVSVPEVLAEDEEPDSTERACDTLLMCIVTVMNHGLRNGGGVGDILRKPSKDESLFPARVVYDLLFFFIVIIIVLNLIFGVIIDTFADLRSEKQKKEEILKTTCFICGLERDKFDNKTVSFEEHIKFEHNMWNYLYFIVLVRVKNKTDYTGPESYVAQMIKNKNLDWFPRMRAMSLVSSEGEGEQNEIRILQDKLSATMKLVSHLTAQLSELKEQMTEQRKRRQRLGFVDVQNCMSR

| IC50 | SMILES |
| --- | --- |
| 0.0134 µM | O=P(O)(O)O[C@@H]1[C@@H](O)[C@@H](OP(=O)(O)O)[C@@H](OP(=O)(O)O)[C@H](O)[C@H]1OP(=O)(O)O |
| 0.598 µM | O=P(O)(O)O[C@@H]1[C@@H](O)[C@H](OP(=O)(O)O)[C@@H](OP(=O)(O)O)[C@H](O)[C@@H]1OP(=O)(O)O |

Source: ChEMBL document CHEMBL1131653, “Syntheses of D- and L-myo-inositol 1,2,4,5-tetrakisphosphate and stereoselectivity of the I(1,4,5)P3 receptor binding” (Bioorg Med Chem Lett, 1998)
